A short description of this test: Bubble cell test, corrosion rate by linear polarization resistance (LPR). To be noted: 80° C., CO2 saturated 3% NaCl brine; 100 ppm active; about 15 hours after CI injection; versus uninhibited carbon steel electrode. Here is the method: Examples were conducted to assess the corrosion inhibition of a saturated alkyl diquaternary compounds of structure (IIIa) as described above using a bubble cell test to assess corrosion performance using linear polarization resistance testing. The corrosion inhibitor (CI) was evaluated without combination of any other chemistries or formulation components.
The corrosion rate was measured by Linear Polarization Resistance (LPR) techniques. The working electrode used was carbon steel (C1018 grade). The counter and reference electrodes were both 1018 carbon steel. The electrodes were all cleaned and polished prior to testing.
The test conditions included: 80° C., CO2 saturated fluids with 3% NaCl brine (100% brine) with continuous CO2 sparge, atmospheric pressure. A pre-corrosion time (i.e. with no corrosion inhibitor) was carried out for about 3 hours before 500 ppm of a 20% active chemistry in solvent blend was added. This is equivalent to 100 ppm of the active chemistry being introduced into the test cell. The inhibited corrosion rate at about 15 hours after CI chemical injection was noted and a percentage inhibition determined by comparing with the corrosion rate of a carbon steel electrode under otherwise the same conditions in the absence of chemical corrosion inhibitor after the same time of exposure to the corrosive environment.

Where only a bound is given, the exact number is not on record here.

With `CCCCCCCCCCCCCCCCCC[N+](C)(C)CC(O)C[N+](CCO)(CCO)CCO` (stereo not shown) [CI Structure IIIa], the “% Protection” value is more than 99%.

For the origin of these results see patent US20250075337A1, “SATURATED QUATERNARY AMMONIUM COMPOUNDS, GLUTARALDEHYDE, AND TETRAKIS(HYDROXYMETHYL)PHOSPHONIUM SULFATE FOR CORROSION INHIBITION, CLEANING, AND BIOCIDAL EFFICACY IN HYDROGEN SYSTEMS” (ChampionX LLC, priority 2023, published 2025).
